Laboratory results: patent US11306102B2, “1,3-di-substituted ketene compound and application thereof” (BEBETTER MED INC., priority 2017, dated 2022)

Biological target: T1, PPARα (Homo sapiens, UniProt Q07869)
T1 construct: expressed in transfected cells; host or cells: Hela cells
T1 sequence (Q07869 1-468): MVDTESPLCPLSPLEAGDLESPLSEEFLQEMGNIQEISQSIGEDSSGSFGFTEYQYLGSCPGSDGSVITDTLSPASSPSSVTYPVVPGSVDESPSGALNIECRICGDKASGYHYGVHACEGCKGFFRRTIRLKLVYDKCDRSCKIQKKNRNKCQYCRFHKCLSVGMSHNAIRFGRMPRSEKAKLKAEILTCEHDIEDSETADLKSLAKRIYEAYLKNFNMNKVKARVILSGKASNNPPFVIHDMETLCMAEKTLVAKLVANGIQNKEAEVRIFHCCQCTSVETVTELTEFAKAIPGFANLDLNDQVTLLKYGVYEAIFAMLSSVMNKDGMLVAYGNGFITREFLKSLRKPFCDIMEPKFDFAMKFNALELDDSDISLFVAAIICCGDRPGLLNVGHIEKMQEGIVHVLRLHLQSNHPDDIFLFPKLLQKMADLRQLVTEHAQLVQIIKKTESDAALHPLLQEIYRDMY
Experiment: Hela cell/luciferase reporter gene method, PPARα agonist activity
Format: cell-based
Conditions: for EC50: Hela cells, pPPRE3-TK-Luciferase reporter, 24 hrs incubation, read-out: agonistic activity on PPAα (EC50); for ratio of PPARγ/PPARα activated (EC50 ratio): under the experimental conditions of the present disclosure
Protocol: This example measures the biological activity of a PPAR agonist using the Hela cell/luciferase reporter gene method.
The target plasmids PCMV PPARα (Ampicillin+), PCMV PPARγ (Ampicillin+), PCMV PPARδ (Ampicillin+), and pPPRE3-TK-Luciferase (Ampicillin+) were introduced into DH5a competent cells by heat shock treatment, respectively. After being incubated for 1 hour at 37° C. with shaking (180 rpm), the cells were inoculated on LB agar solid medium containing antibiotic Ampicillin, and invertedly cultured at 37° C. for 12-16 hours. Then the monoclonal colony cultured on the medium was taken and inoculated into LB liquid medium for expanded culture. The desired plasmid was extracted from the resulting bacterial solution with a Plasmid Midi Kit (Qiagen; #12143). The plasmid obtained by centrifugation was suspended in TE buffer, and the plasmid concentration was measured and the mixture was stored at −20° C. Hela cells in the exponential phase were seeded in 6-well plates (8-10^5 cells/well), and after 6-8 hours of culture, the cells were transfected using Lipofectamine® 3000 Transfection Reagent (Invitrogen; #L3000015). A plasmid containing a PPAR binding site (peroxisome proliferator response element, PPRE) and a firefly luciferase gene (pPPRE3-TK-Luciferase) and PPAR expression vector were co-transfected into a Hela cell with a total amount of plasmid DNA of 2.5 ug (the mass ratio of each PPAR expression vector is pPPRE:PPARα=6:1, pPPRE:PPARδ=8:1, and pPPRE:PPARγ=2:1) to construct a drug screening cell model for PPAR agonists. PPAR was binded to the ligand and then binded to the peroxisome proliferator response element (PPRE), thereby initiating downstream firefly luciferase expression and its expression intensity was directly proportional to the degree of PPAR activation. The cells after 24 hours transfection were prepared into a cell suspension with a cell concentration of […] by a complete culture solution, and seeded into a 96-well plate with 100 ul per well. After overnight culture, the medium was changed to a medium containing 1% FBS. 10 mM candidate compound stock (1000×) were 4-fold diluted in DMSO for 8 points, then supplemented with medium containing 1% FBS to a final concentration of 50 uM (5×) by addition of 25 μl of 5× compound diluent to each well in different concentration gradients and incubated under 37° C., 5% CO2 incubator for 24 hrs. The 96-well plate was taken out and 30 μl of Bright-Glo™ Luciferase Assay System (Promega #E2620) was added to each well. The Luciferase luminescence intensity was measured by a SynergyH1 full-function microplate detector. The obtained data was used to calculate EC50 using GraphPad Prism 5.0 software to determine the biological activity of the compound.
The agonistic activity of the compounds synthesized in Examples 1-41 on PPAR is represented by EC50 (see Table 1). EC50 refers to the drug concentration at which the compound has a 50% increase in the agonistic activity of the measured PPAR. The compound numbers in Table 1 correspond to the compound numbers in Examples 1-41.

Row | Compound | EC50 [nM] | increased activity for activation of PPARα compared with Elafibranor [fold] | ratio of PPARγ/PPARα activated (EC50 ratio)
1 | CSc1cccc2oc(C(=O)/C=C/c3cc(C)c(OC(C)(C)C(=O)O)c(C)c3)cc12 [Compound 60, (E)-2-(2,6-dimethyl-4-(3-(4-(methylthio)benzofuran-2-yl)-3-oxoprop-1-en-1-yl)phenoxy)-2-methylpropanoic acid] | 46.7 |  | 
2 | CCSc1ccc2c(C)c(C(=O)/C=C/c3cc(C)c(OC(C)(C)C(=O)O)c(C)c3)oc2c1 [Compound 74, (E)-2-(4-(3-(6-(ethylthio)-3-methylbenzofuran-2-yl)-3-oxoprop-1-en-1-yl)-2,6-dimethylphenoxy)-2-methylpropanoic acid] | 13.9 |  | 
3 | CCc1c(C(=O)/C=C/c2cc(C)c(OC(C)(C)C(=O)O)c(C)c2)oc2cc(SC)ccc12 [Compound 63, (E)-2-(4-(3-(3-ethyl-6-(methylthio)benzofuran-2-yl)-3-oxoprop-1-en-1-yl)-2,6-dimethylphenoxy)-2-methylpropanoic acid] | 19.2 |  | 
4 | COc1ccc2cc(C(=O)/C=C/c3cc(C)c(OC(C)(C)C(=O)O)c(C)c3)oc2c1 [Compound 43, (E)-2-(4-(3-(6-methoxybenzofuran-2-yl)-3-oxoprop-1-en-1-yl)-2,6-dimethylphenoxy)-2-methylpropanoic acid] | 39.8 |  | 
5 | CSc1ccc2cc(C(=O)/C=C/c3cc(C)c(OC(C)(C)C(=O)O)c(C)c3)sc2c1 [Compound 81, (E)-2-(2,6-dimethyl-4-(3-(6-(methylthio)benzo[b]thiophen-2-yl)-3-oxoprop-1-en-1-yl)phenoxy)-2-methylpropanoic acid] | 24.9 |  | 
6 | CSc1ccc2c(C)c(C(=O)/C=C/c3cc(C)c(OC(C)(C)C(=O)O)c(C)c3)oc2c1 [Compound 62, (E)-2-(2,6-dimethyl-4-(3-(3-methyl-6-(methylthio)benzofuran-2-yl)-3-oxoprop-1-en-1-yl)phenoxy)-2-methylpropanoic acid] | 16.6 | 1 | 7.98
7 | CSc1ccc2cc(C(=O)/C=C/c3cc(C)c(OC(C)(C)C(=O)O)c(C)c3)oc2c1 [Compound 51, (E)-2-(2,6-dimethyl-4-(3-(6-(methylthio)benzofuran-2-yl)-3-oxoprop-1-en-1-yl)phenoxy)-2-methylpropanoic acid] | 4 | 7 | 8.83
8 | CSc1ccc(C(=O)/C=C/c2cc(C)c(OC(C)(C)C(=O)O)c(C)c2)c2occc12 [Compound 5, (E)-2-(2,6-dimethyl-4-(3-(4-(methylthio)benzofuran-7-yl)-3-oxoprop-1-en-1-yl)phenoxy)-2-methylpropanoic acid] | 24.4 |  | 
9 | CSc1ccc(C(=O)/C=C/c2cc(C)c(OC(C)(C)C(=O)O)c(C)c2)c2ccoc12 [Compound 27, (E)-2-(2,6-dimethyl-4-(3-(7-(methylthio)benzofuran-4-yl)-3-oxoprop-1-en-1-yl)phenoxy)-2-methylpropanoic acid] | 59.1 |  | 
10 | CSc1ccc2c(C)c(C(=O)/C=C/c3cc(Cl)c(OC(C)(C)C(=O)O)c(Cl)c3)oc2c1 [Compound 103, (E)-2-(2,6-dichloro-4-(3-(3-methyl-6-(methylthio)benzofuran-2-yl)-3-oxoprop-1-en-1-yl)phenoxy)-2-methylpropanoic acid] | 8.7 |  | 90.59
11 | CCSc1ccc(C(=O)/C=C/c2cc(C)c(OC(C)(C)C(=O)O)c(C)c2)c2occc12 [Compound 6, (E)-2-(4-(3-(4-(ethylthio)benzofuran-7-yl)-3-oxoprop-1-en-1-yl)-2,6-dimethylphenoxy)-2-methylpropanoic acid] | 9.6 |  | 
12 | CSc1ccc2cc(C(=O)/C=C/c3cc(Cl)c(OC(C)(C)C(=O)O)c(Cl)c3)oc2c1 [Compound 100, (E)-2-(2,6-dichloro-4-(3-(6-(methylthio)benzofuran-2-yl)-3-oxoprop-1-en-1-yl)phenoxy)-2-methylpropanoic acid] | 2 |  | 237.55
13 | Cc1cc(/C=C/C(=O)c2ccc3c(c2)CCS3)cc(C)c1OC(C)(C)C(=O)O [Compound 36, (E)-2-(4-(3-(2,3-dihydrobenzo[b]thiophen-5-yl)-3-oxoprop-1-en-1-yl)-2,6-dimethylphenoxy)-2-methylpropanoic acid] | 75.1 |  | 
